Assays:
Format in all cases: in vivo
Details in all cases: after 13 d
corn (Zea mays, ZEAMX) [1] = assay: Test A pre-emergence, corn
Description: (§1) Seeds of corn (Zea mays, ZEAMX), giant foxtail (Setaria faberi, SETFA), barnyardgrass (Echinochloa crus-galli, ECHCG), ivy-leaved morning glory (Ipomoea hederacea, IPOHE), redroot pigweed (Amaranthus retroflexus, AMARE) and velvetleaf (Abutilon theophrasti, ABUTH) were sown in standard soil in pots. After cultivation for one day under controlled conditions in a glasshouse (at 24/16° C., day/night; 14 h light; 65% humidity), the plants were sprayed with an aqueous spray solution derived from the formulation of the technical active ingredient in acetone/water (50:50) solution containing 0.5% Tween 20 (polyoxyethylene sorbitan monolaurate, CAS RN 9005-64-5) to give a final dose of 15.625, 62.5 or 250 g/ha of test compound.
(§2) The test plants were then grown under controlled conditions in a glasshouse (at 24/16° C., day/night; 14 h light; 65% humidity) and watered twice daily. After 13 d the test was evaluated (100=total damage to plant; 0=no damage to plant).

[2] = test system: barnyardgrass (Echinochloa crus-galli, ECHCG); assay: Test A post-emergence, barnyardgrass
Description: as §1, with “IPOHE)),” for “IPOHE),”, “8 d” for “one day”
(§3) The test plants were then grown on under controlled conditions in a glasshouse (at 24/16° C., day/night; 14 h light; 65% humidity) and watered twice daily. After 13 d the test was evaluated (100=total damage to plant; 0=no damage to plant).

[3] = test system: velvetleaf (Abutilon theophrasti, ABUTH); assay: Test A post-emergence, velvetleaf
Description: as §1, with “IPOHE)),” for “IPOHE),”, “8 d” for “one day”
as §3

[4] = test system: barnyardgrass (Echinochloa crus-galli, ECHCG); assay: Test A pre-emergence, barnyardgrass
Description: as §1, §2

[5] = test system: velvetleaf (Abutilon theophrasti, ABUTH); assay: Test A pre-emergence, velvetleaf
Description: as §1, §2

[6] = test system: redroot pigweed (Amaranthus retroflexus, AMARE); assay: Test A pre-emergence, redroot pigweed
Description: as §1, §2

[7] = test system: ivy-leaved morning glory (Ipomoea hederacea, IPOHE); assay: Test A pre-emergence, ivy-leaved morning glory
Description: as §1, §2

[8] = test system: redroot pigweed (Amaranthus retroflexus, AMARE); assay: Test A post-emergence, redroot pigweed
Description: as §1, with “IPOHE)),” for “IPOHE),”, “8 d” for “one day”
as §3

corn (Zea mays, ZEAMX) [9] = assay: Test A post-emergence, corn
Description: as §1, with “IPOHE)),” for “IPOHE),”, “8 d” for “one day”
as §3

[10] = test system: giant foxtail (Setaria faberi, SETFA); assay: Test A pre-emergence, giant foxtail
Description: as §1, §2

[11] = test system: ivy-leaved morning glory (Ipomoea hederacea, IPOHE); assay: Test A post-emergence, ivy-leaved morning glory
Description: as §1, with “IPOHE)),” for “IPOHE),”, “8 d” for “one day”
as §3

[12] = test system: giant foxtail (Setaria faberi, SETFA); assay: Test A post-emergence, giant foxtail
Description: as §1, with “IPOHE)),” for “IPOHE),”, “8 d” for “one day”
as §3

| SMILES | damage to plant (100=total damage; 0=no damage) ZEAMX (corn (Zea mays, ZEAMX) [1]; Pre-Emergence at 15.625 g/ha) | damage to plant (100=total damage; 0=no damage) ZEAMX (corn (Zea mays, ZEAMX) [1]; Pre-Emergence at 62.5 g/ha) | damage to plant (100=total damage; 0=no damage) ZEAMX (corn (Zea mays, ZEAMX) [1]; Pre-Emergence at 250 g/ha) | damage to plant (100=total damage; 0=no damage) ECHCG ([2]; Post-Emergence at 15.625 g/ha) | damage to plant (100=total damage; 0=no damage) ECHCG ([2]; Post-Emergence at 62.5 g/ha) | damage to plant (100=total damage; 0=no damage) ECHCG ([2]; Post-Emergence at 250 g/ha) | damage to plant (100=total damage; 0=no damage) ABUTH ([3]; Post-Emergence at 15.625 g/ha) | damage to plant (100=total damage; 0=no damage) ABUTH ([3]; Post-Emergence at 62.5 g/ha) | damage to plant (100=total damage; 0=no damage) ABUTH ([3]; Post-Emergence at 250 g/ha) | damage to plant (100=total damage; 0=no damage) ECHCG ([4]; Pre-Emergence at 15.625 g/ha) | damage to plant (100=total damage; 0=no damage) ECHCG ([4]; Pre-Emergence at 62.5 g/ha) | damage to plant (100=total damage; 0=no damage) ECHCG ([4]; Pre-Emergence at 250 g/ha) | damage to plant (100=total damage; 0=no damage) ABUTH ([5]; Pre-Emergence at 15.625 g/ha) | damage to plant (100=total damage; 0=no damage) ABUTH ([5]; Pre-Emergence at 62.5 g/ha) | damage to plant (100=total damage; 0=no damage) ABUTH ([5]; Pre-Emergence at 250 g/ha) | damage to plant (100=total damage; 0=no damage) AMARE ([6]; Pre-Emergence at 15.625 g/ha) | damage to plant (100=total damage; 0=no damage) AMARE ([6]; Pre-Emergence at 62.5 g/ha) | damage to plant (100=total damage; 0=no damage) AMARE ([6]; Pre-Emergence at 250 g/ha) | damage to plant (100=total damage; 0=no damage) IPOHE ([7]; Pre-Emergence at 15.625 g/ha) | damage to plant (100=total damage; 0=no damage) IPOHE ([7]; Pre-Emergence at 62.5 g/ha) | other results |
| --- | --- | --- | --- | --- | --- | --- | --- | --- | --- | --- | --- | --- | --- | --- | --- | --- | --- | --- | --- | --- | --- |
| CCn1nc(C2CN(C)C(=O)C2C(=O)Nc2cccc(F)c2F)c2cccc(F)c21 (racemic) [Compound 10] | 0 | 70 | 70 | 60 | 90 | 90 | 0 | 0 | 10 | 50 | 90 | 90 | 0 | 10 | 0 | 0 | 0 | 10 | 0 | 30 | damage to plant (100=total damage; 0=no damage) IPOHE ([7]; Pre-Emergence at 250 g/ha): 0; damage to plant (100=total damage; 0=no damage) AMARE ([8]; Post-Emergence at 15.625 g/ha): 0; damage to plant (100=total damage; 0=no damage) AMARE ([8]; Post-Emergence at 62.5 g/ha): 0; damage to plant (100=total damage; 0=no damage) AMARE ([8]; Post-Emergence at 250 g/ha): 0; damage to plant (100=total damage; 0=no damage) ZEAMX (corn (Zea mays, ZEAMX) [9]; Post-Emergence at 15.625 g/ha): 0; damage to plant (100=total damage; 0=no damage) ZEAMX (corn (Zea mays, ZEAMX) [9]; Post-Emergence at 62.5 g/ha): 10; damage to plant (100=total damage; 0=no damage) ZEAMX (corn (Zea mays, ZEAMX) [9]; Post-Emergence at 250 g/ha): 70; damage to plant (100=total damage; 0=no damage) SETFA ([10]; Pre-Emergence at 15.625 g/ha): 80; damage to plant (100=total damage; 0=no damage) SETFA ([10]; Pre-Emergence at 62.5 g/ha): 90; damage to plant (100=total damage; 0=no damage) SETFA ([10]; Pre-Emergence at 250 g/ha): 90; damage to plant (100=total damage; 0=no damage) IPOHE ([11]; Post-Emergence at 15.625 g/ha): 0; damage to plant (100=total damage; 0=no damage) IPOHE ([11]; Post-Emergence at 62.5 g/ha): 0; damage to plant (100=total damage; 0=no damage) IPOHE ([11]; Post-Emergence at 250 g/ha): 30; damage to plant (100=total damage; 0=no damage) SETFA ([12]; Post-Emergence at 15.625 g/ha): 50; damage to plant (100=total damage; 0=no damage) SETFA ([12]; Post-Emergence at 62.5 g/ha): 80; damage to plant (100=total damage; 0=no damage) SETFA ([12]; Post-Emergence at 250 g/ha): 90 |
| CN1CC(c2cc(C(F)(F)F)n(C)n2)C(C(=O)Nc2cccc(F)c2OC(F)(F)F)C1=O (racemic) [Compound 16] | 0 | 0 | 30 | 0 | 50 | 70 | 0 | 0 | 0 | 0 | 80 | 90 | 0 | 0 | 0 | 0 | 0 | 0 | 0 | 0 | damage to plant (100=total damage; 0=no damage) IPOHE ([7]; Pre-Emergence at 250 g/ha): 50; damage to plant (100=total damage; 0=no damage) AMARE ([8]; Post-Emergence at 15.625 g/ha): 0; damage to plant (100=total damage; 0=no damage) AMARE ([8]; Post-Emergence at 62.5 g/ha): 0; damage to plant (100=total damage; 0=no damage) AMARE ([8]; Post-Emergence at 250 g/ha): 0; damage to plant (100=total damage; 0=no damage) ZEAMX (corn (Zea mays, ZEAMX) [9]; Post-Emergence at 15.625 g/ha): 0; damage to plant (100=total damage; 0=no damage) ZEAMX (corn (Zea mays, ZEAMX) [9]; Post-Emergence at 62.5 g/ha): 0; damage to plant (100=total damage; 0=no damage) ZEAMX (corn (Zea mays, ZEAMX) [9]; Post-Emergence at 250 g/ha): 0; damage to plant (100=total damage; 0=no damage) SETFA ([10]; Pre-Emergence at 15.625 g/ha): 0; damage to plant (100=total damage; 0=no damage) SETFA ([10]; Pre-Emergence at 62.5 g/ha): 80; damage to plant (100=total damage; 0=no damage) SETFA ([10]; Pre-Emergence at 250 g/ha): 90; damage to plant (100=total damage; 0=no damage) IPOHE ([11]; Post-Emergence at 15.625 g/ha): 0; damage to plant (100=total damage; 0=no damage) IPOHE ([11]; Post-Emergence at 62.5 g/ha): 0; damage to plant (100=total damage; 0=no damage) IPOHE ([11]; Post-Emergence at 250 g/ha): 0; damage to plant (100=total damage; 0=no damage) SETFA ([12]; Post-Emergence at 15.625 g/ha): 0; damage to plant (100=total damage; 0=no damage) SETFA ([12]; Post-Emergence at 62.5 g/ha): 60; damage to plant (100=total damage; 0=no damage) SETFA ([12]; Post-Emergence at 250 g/ha): 70 |
